From patent publication US10226041B2, “Compositions and methods for improving the quality of processed sperm” (Inguran, LLC, priority 2011, dated 2019)
Several values for one entry are separate records, joined by “and”; a condition that tells them apart may be missing. Identical values can stand only once.

Test system: sex-sorted sperm cells
Test: CASA post-thaw motility of sex sorted bull sperm treated with OSR
Assay type: cell-based, bovine
Parameters: key to BCF: beat cross frequency in Hz; key to ALH: lateral head displacement in μm; key to STR / LIN: percent; key to Motile: percent motile sperm; key to VAP / VSL / VCL: velocity in μm/s
Conditions: for ALH / BCF / LIN / Motile / Prog / STR / VAP / VCL / VSL: 3 hr post-thaw
From the text: 5. Sperm Motility Evaluations by CASA. A comparison of viewing chambers and slides can be done in a variety of IVOS instruments, which for example only can be a Hamilton-Thorne IVOS (Hamilton-Thorne, Beverly, Mass.). Instrument settings: image capture; frames per second=60; number of frames=30; cell detection; minimum contrast=50; minimum cell size=5; defaults, cell size=5; cell intensity=50; progressive cells, path velocity=50 um/s; straightness ≥70%; slow cells (um/s); average path velocity (VAP, <30 um/s), straight-line velocity (VSL, <15 um/s). The CASA motility variables measured can be a percentage of total motile sperm (motile), percentage of progressively motile sperm (progressive), VAO, VSL, curvilinear velocity (VCL, um/s), average lateral head displacement (ALK, um) and the number of times the sperm head crosses the mean path/s (BCF, Hz), straight-line sperm motility (STR, %), and linear sperm motility (LIN, %). See for instance, Lenz, R W, et al., J Anim Sci (2011) 89:383-388, incorporated by reference herein in its entirety.
One set of semen from each bull was used as a control while to the remaining sets of semen samples were added vitamin B12, as the antioxidant, at respective concentrations of 0.5 mg/ml and 0.25 mg/ml. For each sample, the same concentration of vitamin B12 was added (i) during the staining process, and (ii) in the catch fluid of the collection vessel. […] Sperm samples were sorted in “High Purity” mode, and the collected sex-sorted sperm were extended with a cryoextender, which in some cases again contained the same concentration of vitamin B12 and the samples were frozen. Three hours after thawing (which is a standard time frame to conduct quality control assessments on sorted frozen thawed sperm samples) the thawed samples were put through CASA, a machine that provides various data on sperm including motility and progressive motility information.
In the tables below: VAP (average path velocity (μm/s)); VSL (straight-line velocity (μm/s)); VCL (curvilinear velocity (μm/s)); ALH (average lateral head displacement (μm)); BCF (the number of times the sperm head crosses the mean path/s in Hz); STR (percent straight-line sperm motility); LIN (percent linear sperm motility); PIA (percent intact acrosomes); motile (percent motile sperm); and progressive (percent progressively motile sperm).
There is no correlation with regard to randomly assigned names such as “Bull A.” Bull A from Example 5 is not the same bull as Bull A from Example 7.
In both cases the concentration of the vitamin B12 was 1 mg/ml. For all other bulls in the table below unless otherwise indicated, the concentration of vitamin B12 added was also 1 mg/ml.
In an additional experiment, motility and progressive motility were checked 3.75 hours after thawing a sex sorted semen sample treated with the antioxidant. The OSR was not added to the control sample. The semen sample was derived from a single bull. 0.25 mg/ml concentration of vitamin B12 was added to the test sample during the staining step, the collecting step (in the catch fluid of the collecting vessel) and in the cryoprotectant extender prior to freezing the sample.
[…] The OSR was not added to the control samples. The semen samples were derived from two Holstein bulls.

[1] = 0.5 mg/ml, 2 step F, 3 hrs post-thaw, Bulls 1-5
[2] = .15 mg/ml, 3 step, Holstein, 1M/straw
[3] = .15 mg/ml, 3 step, Holstein, 2.1M/straw
[4] = .15 mg/ml, 3 step, Jersey, 2.1M/straw
[5] = .25 mg/ml, 3 step, Holstein, 1M/straw
[6] = .25 mg/ml, 3 step, Holstein, 2.1M/straw
[7] = .25 mg/ml, 3 step, Holstein, 5M/straw
[8] = .25 mg/ml, 3 step, Jersey, 2.1M/straw
[9] = .35 mg/ml, 3 step, Holstein, 1M/straw
[10] = .35 mg/ml, 3 step, Holstein, 2.1M/straw
[11] = .35 mg/ml, 3 step, Holstein, 5M/straw
[12] = .5 mg/ml, 3 step, Holstein, 5M/straw

vitamin B12
% Motility (0 hr, 1 step-stain (+−−), Bull C (Jersey), Trial 1): 80% | % Motility (0 hr, 1 step-stain (+−−), Bull C (Jersey), Trial 2): 61% | % Motility (0 hr, 2 step-stain (++−), Bull C (Jersey), Trial 1): 74% | % Motility (0 hr, 2 step-stain (++−), Bull C (Jersey), Trial 2): 57% | % Motility (0 hr, 3 step (+++), Bull C (Jersey), Trial 1): 70% | % Motility (0 hr, 3 step (+++), Bull C (Jersey), Trial 2): 76% | % Motility (0 hr, vitamin B12 0.5 mg/ml, 3 step, Bull A (Jersey)): 60% | % Motility (0 hr, vitamin B12 0.5 mg/ml, 3 step, Bull B (Holstein)): 79% | Motile (percent motile sperm) (0.5 mg/ml, 2 step F (catch fluid + cryoextender), 3 hrs post-thaw, Bulls 1-5): 70.5% and 74.5% and 81.5% and 51% and 63.5% | ALH (average lateral head displacement) [1]: 4 μm and 5 μm | BCF (times sperm head crosses the mean path/s) [1]: 21.5 Hz and 22.5 Hz and 26 Hz and 20.5 Hz and 23 Hz | LIN (percent linear sperm motility) [1]: 61% and 52.5% and 49% and 47% | STR (percent straight-line sperm motility) [1]: 85.5% and 84.5% and 83.5% and 84% and 86.5% | VAP (average path velocity) [1]: 77 μm/s and 56 μm/s and 60 μm/s and 50 μm/s | VCL (curvilinear velocity) [1]: 108 μm/s and 98 μm/s and 109 μm/s and 101 μm/s and 94 μm/s | VSL (straight-line velocity) [1]: 66 μm/s and 51 μm/s and 53 μm/s and 47 μm/s and 45 μm/s | % Motility (3 hr, 1 step-stain (+−−), Bull C (Jersey), Trial 1): 47% | % Motility (3 hr, 2 step-stain (++−), Bull C (Jersey), Trial 1): 57% | % Motility (3 hr, 2 step-stain (++−), Bull C (Jersey), Trial 2): 25% | % Motility (3 hr, 3 step (+++), Bull C (Jersey), Trial 1): 75% | % Motility (3 hr, 3 step (+++), Bull C (Jersey), Trial 2): 42% | % Motility (3 hr, vitamin B12 0.5 mg/ml, 3 step, Bull A (Jersey)): 42% | % Motility (3 hr, vitamin B12 0.5 mg/ml, 3 step, Bull B (Holstein)): 48% | ALH [2]: 4 | BCF [2]: 12 | LIN [2]: 53 | Motile [2]: 48 | Prog [2]: 18 | STR [2]: 88 | VAP [2]: 48 | VCL [2]: 81 | VSL [2]: 42 | ALH [3]: 5 | BCF [3]: 18 | LIN [3]: 48 | Motile [3]: 49 | Prog [3]: 10 | STR [3]: 86 | VAP [3]: 44 | VCL [3]: 79 | VSL [3]: 38 | ALH [4]: 6 | BCF [4]: 15 | LIN [4]: 47 | Motile [4]: 25 | Prog [4]: 4 | STR [4]: 84 | VAP [4]: 42 | VCL [4]: 75 | VSL [4]: 35 | ALH [5]: 4 | BCF [5]: 22 | LIN [5]: 53 | Motile [5]: 48 | Prog [5]: 29 | STR [5]: 87 | VAP [5]: 55 | VCL [5]: 92 | VSL [5]: 47 | ALH [6]: 5 | BCF [6]: 20 | LIN [6]: 50 | Motile [6]: 48 | Prog [6]: 18 | STR [6]: 87 | VAP [6]: 46 | VCL [6]: 81 | VSL [6]: 40 | ALH [7]: 7 | BCF [7]: 14 | LIN [7]: 42 | Motile [7]: 24 | Prog [7]: 2 | STR [7]: 70 | VAP [7]: 41 | VCL [7]: 69 | VSL [7]: 28 | ALH [8]: 5 | BCF [8]: 20 | LIN [8]: 50 | Motile [8]: 48 | Prog [8]: 20 | STR [8]: 85 | VAP [8]: 51 | VCL [8]: 87 | VSL [8]: 43 | ALH [9]: 4 | BCF [9]: 23 | LIN [9]: 55 | Motile [9]: 65 | Prog [9]: 46 | STR [9]: 88 | VAP [9]: 58 | VCL [9]: 94 | VSL [9]: 51 | ALH [10]: 5 | BCF [10]: 23 | LIN [10]: 53 | Motile [10]: 46 | Prog [10]: 30 | STR [10]: 88 | VAP [10]: 58 | VCL [10]: 99 | VSL [10]: 51 | ALH [11]: 7 | BCF [11]: 14 | LIN [11]: 43 | Motile [11]: 28 | Prog [11]: 3 | STR [11]: 69 | VAP [11]: 41 | VCL [11]: 68 | VSL [11]: 32 | ALH [12]: 6 | BCF [12]: 15 | LIN [12]: 43 | Motile [12]: 14 | Prog [12]: 3 | STR [12]: 70 | VAP [12]: 43 | VCL [12]: 71 | VSL [12]: 30
